# From patent publication US20100298141A1, “SUBSTITUTED PYRIDINE N-OXIDE HERBICIDES” (E. I. DU PONT DE NEMOURS AND COMPANY, priority 2007, published 2010)
# Assays:
# soybean = assay: Test C pre-/postemergence test; format: in vivo, Glycine max
# Procedure, shortened: (§1)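 Seeds were planted and treated preemergence with test chemical in a non-phytotoxic solvent mixture containing surfactant. Postemergence applications of the same formulation went onto plants 2 to 18 cm tall (1- to 4-leaf stage). A dash marks no test result.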
# green foxtail = assay: Test C pre-/postemergence test; format: in vivo, Setaria viridis
# Procedure, shortened: as §1
# barnyardgrass = assay: Test A pre-/postemergence greenhouse test; format: in vivo, Echinochloa crus-galli; conditions: for Barnyardgrass plant response rating: 0 to 100 scale
# Procedure, shortened: (§2)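 Pots of loam–sand soil sown with the test species are sprayed preemergence on the soil surface; emerged seedlings (1–2 leaves, 2–10 cm) are sprayed postemergence at the same time. The vehicle is a non-phytotoxic solvent mixture with surfactant. Injury is scored visually after ~10 d in greenhouse.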
# yellow nutsedge = assay: Test C pre-/postemergence test; format: in vivo, Cyperus esculentus
# Procedure, shortened: as §1
# pigweed = assay: Test C pre-/postemergence test; format: in vivo, Amaranthus retroflexus
# Procedure, shortened: as §1
# crabgrass = assay: Test C pre-/postemergence test; format: in vivo, Digitaria sanguinalis
# Procedure, shortened: as §1
# Italian ryegrass = assay: Test C pre-/postemergence test; format: in vivo, Lolium multiflorum
# Procedure, shortened: as §1
# kochia = assay: Test C pre-/postemergence test; format: in vivo, Kochia scoparia
# Procedure, shortened: as §1
# cocklebur = assay: Test C pre-/postemergence test; format: in vivo, Xanthium strumarium
# Procedure, shortened: as §1
# [1] = tested on: common (oilseed) sunflower; assay: Test C pre-/postemergence test; format: in vivo, Helianthus annuus
# Procedure, shortened: as §1
# wheat = assay: Test C pre-/postemergence test; format: in vivo, Triticum aestivum
# Procedure, shortened: as §1
# blackgrass = assay: Test C pre-/postemergence test; format: in vivo, Alopecurus myosuroides
# Procedure, shortened: as §1
# umbrella sedge = assay: Test C flooded paddy test; format: in vivo, Cyperus difformis; conditions: Flood
# Procedure, shortened: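 Under a constant 3 cm flood, test compounds went directly into the paddy water. Following 13 to 15 days of greenhouse growth, treated species and controls were compared by eye.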
# morningglory [2] = assay: Test A pre-/postemergence greenhouse test; format: in vivo, Ipomoea spp.; conditions: for Morningglory plant response rating: 0 to 100 scale
# Procedure, shortened: as §2
# corn = assay: Test C pre-/postemergence test; format: in vivo, Zea mays
# Procedure, shortened: as §1
# woolly cupgrass = assay: Test C pre-/postemergence test; format: in vivo, Eriochloa villosa
# Procedure, shortened: as §1
# morningglory [3] = assay: Test C pre-/postemergence test; format: in vivo, Ipomoea coccinea
# Procedure, shortened: as §1
# [4] = 62 g ai/ha, Preemergence, scale 0 to 100
# [5] = 125 g ai/ha, preemergence, scale 0 (no effect) to 100 (complete control)
# [6] = Preemergence, 31 g ai/ha, scale 0 to 100 (0 no effect, 100 complete control)
# [7] = preemergence, 250 g ai/ha, scale 0 (no effect) to 100 (complete control)
# [8] = Postemergence, 125 g ai/ha, 0 to 100 scale where 0 is no effect and 100 is complete control
# [9] = Postemergence, 500 g ai/ha, 0 is no effect, 100 is complete control
# [10] = Preemergence, 125 g ai/ha, 0 no effect, 100 complete control
# [11] = Preemergence, 500 g ai/ha, 0 no effect, 100 complete control
compound,measurement,setting,value
C#CCOc1c(CS(=O)(=O)c2cccc[n+]2[O-])c(C(F)(F)F)nn1C [Compound 103],Soybean plant response rating,soybean; [4],0
same,Soybean plant response rating,soybean; [5],10
same,"Plant response rating, Soybean",soybean; [6],0
same,Soybean plant response rating,soybean; [7],50
same,"Foxtail, Green plant response rating",green foxtail; [4],98
same,"Foxtail, Green plant response rating",green foxtail; [5],100
same,"Plant response rating, Foxtail, Green",green foxtail; [6],60
same,"Foxtail, Green plant response rating",green foxtail; [7],100
same,"Plant response rating, Barnyardgrass",barnyardgrass; [8],80
same,Barnyardgrass plant response rating,barnyardgrass; [9],90
same,Barnyardgrass plant response rating,barnyardgrass; [10],90
same,Barnyardgrass plant response rating,barnyardgrass; [11],100
same,"Nutsedge, Yellow plant response rating",yellow nutsedge; [4],70
same,"Nutsedge, Yellow plant response rating",yellow nutsedge; [5],85
same,"Plant response rating, Nutsedge, Yellow",yellow nutsedge; [6],0
same,"Nutsedge, Yellow plant response rating",yellow nutsedge; [7],85
same,Pigweed plant response rating,pigweed; [4],100
same,Pigweed plant response rating,pigweed; [5],100
same,"Plant response rating, Pigweed",pigweed; [6],60
same,Pigweed plant response rating,pigweed; [7],100
same,"Crabgrass, Large plant response rating",crabgrass; [4],98
same,"Crabgrass, Large plant response rating",crabgrass; [5],100
same,"Plant response rating, Crabgrass, Large",crabgrass; [6],90
same,"Crabgrass, Large plant response rating",crabgrass; [7],100
same,"Ryegrass, Italian plant response rating",Italian ryegrass; [4],50
same,"Ryegrass, Italian plant response rating",Italian ryegrass; [5],55
same,"Plant response rating, Ryegrass, Italian",Italian ryegrass; [6],0
same,"Ryegrass, Italian plant response rating",Italian ryegrass; [7],60
same,Kochia plant response rating,kochia; [4],0
same,Kochia plant response rating,kochia; [5],100
same,Kochia plant response rating,kochia; [7],100
same,Cocklebur plant response rating,cocklebur; [4],0
same,Cocklebur plant response rating,cocklebur; [5],0
same,"Plant response rating, Cocklebur",cocklebur; [6],0
same,Cocklebur plant response rating,cocklebur; [7],30
same,Sunflower plant response rating,[1]; [4],35
same,Sunflower plant response rating,[1]; [5],50
same,"Plant response rating, Sunflower",[1]; [6],35
same,Sunflower plant response rating,[1]; [7],90
same,Wheat plant response rating,wheat; [4],0
same,Wheat plant response rating,wheat; [5],25
same,"Plant response rating, Wheat",wheat; [6],0
same,Wheat plant response rating,wheat; [7],98
same,Blackgrass plant response rating,blackgrass; [4],100
same,Blackgrass plant response rating,blackgrass; [5],100
same,"Plant response rating, Blackgrass",blackgrass; [6],100
same,Blackgrass plant response rating,blackgrass; [7],100
same,"Plant response rating, Sedge, Umbrella","umbrella sedge; 62 g ai/ha, scale 0 to 100 (0 no effect, 100 complete control)",0
same,"Plant response rating, Sedge, Umbrella","umbrella sedge; 250 g ai/ha, scale 0 to 100, 0 no effect, 100 complete control, 13 to 15 days",55
same,"Plant response rating, Morningglory",morningglory [2]; [8],20
same,Morningglory plant response rating,morningglory [2]; [9],70
same,Morningglory plant response rating,morningglory [2]; [10],0
same,Morningglory plant response rating,morningglory [2]; [11],70
same,Corn plant response rating,corn; [4],0
same,Corn plant response rating,corn; [5],65
same,"Plant response rating, Corn",corn; [6],0
same,Corn plant response rating,corn; [7],95
same,"Cupgrass, Woolly plant response rating",woolly cupgrass; [4],30
same,"Cupgrass, Woolly plant response rating",woolly cupgrass; [5],85
same,"Plant response rating, Cupgrass, Woolly",woolly cupgrass; [6],0
same,"Cupgrass, Woolly plant response rating",woolly cupgrass; [7],100
same,Morningglory plant response rating,morningglory [3]; [4],55
same,Morningglory plant response rating,morningglory [3]; [5],80
same,"Plant response rating, Morningglory",morningglory [3]; [6],0
same,Morningglory plant response rating,morningglory [3]; [7],98
